{"source": "patent US8268854B2", "about": "“Aza-beta-carbolines and methods of using same” (The UWM Research Foundation, Inc., priority 2008, dated 2012)", "molecular_target": "T1, NET transporter (Homo sapiens, UniProt P23975)", "T1 construct": "expressed in transfected cells", "T1 sequence (P23975 whole entry)": "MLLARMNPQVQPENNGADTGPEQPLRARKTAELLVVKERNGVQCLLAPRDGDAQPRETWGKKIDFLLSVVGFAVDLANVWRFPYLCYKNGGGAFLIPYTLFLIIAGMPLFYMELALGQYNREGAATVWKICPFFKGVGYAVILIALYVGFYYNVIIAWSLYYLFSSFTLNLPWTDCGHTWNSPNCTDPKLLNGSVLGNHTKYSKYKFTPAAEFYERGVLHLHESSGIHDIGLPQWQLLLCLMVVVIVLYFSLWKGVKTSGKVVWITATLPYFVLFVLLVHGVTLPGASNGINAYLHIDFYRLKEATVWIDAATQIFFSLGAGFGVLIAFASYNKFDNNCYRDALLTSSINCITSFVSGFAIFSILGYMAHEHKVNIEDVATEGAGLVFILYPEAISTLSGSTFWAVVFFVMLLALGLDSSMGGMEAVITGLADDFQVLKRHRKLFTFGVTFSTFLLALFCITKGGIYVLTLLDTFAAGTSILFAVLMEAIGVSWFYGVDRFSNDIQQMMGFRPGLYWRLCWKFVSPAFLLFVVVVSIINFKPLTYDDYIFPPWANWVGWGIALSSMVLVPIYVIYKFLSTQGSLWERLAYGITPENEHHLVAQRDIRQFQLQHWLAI", "assay": "PDSP primary radioligand binding assay", "settings": "compound 10 μM", "note": "Where a name gives a salt, the structure may show the parent alone.", "data": [{"compound": "CCCOc1cc2c(cn1)[nH]c1cnccc12", "note": "[Compound 4, 3-Propoxy pyridino[4′,3′-4,5]pyrrolo[2,3-c]pyridine hydrochloride]", "values": [{"measurement": "mean percentage inhibition, NET transporter", "setting": "n=4, hydrochloride, 10 µM", "value": 36.8, "unit": "%"}, {"measurement": "inhibition at 10 µM", "setting": "n=4, read-out: mean percentage inhibition, NET transporter", "value": "< 50", "unit": "%"}]}]}
